SMILES strings stand for the structures. Entries after “also recorded” stand apart in the source; their conditions may differ. Where two headings read alike, the source gives them in different places.

This note sets out measurements from patent publication US9510593B2, “S-benzylthiouracil compounds and methods of enhancing plant root growth” (Valent BioSciences Corporation, priority 2014, dated 2016).

Type in all cases: in vivo
One experiment has as its system rice. Put plainly: Rice pouch assay: growth of primary root and shoot. As to conditions: for change in vivo at 10 ppm: Oryza sativa, 144 h, read-out: Percent Change in Primary Root Length in Rice; for Percent Change in Primary Root Length of Rice: linkage changes; for Effect on rice root growth, in words: rice pouch assay, compared to control. The procedure:
Seeds were placed in germination pouches consisting of germination paper as an insert in a gas-permeable 16×14 cm plastic pouch (CYG Pouch; Mega International, St. Paul, Minn.). In pouch solution evaluation, S-Benzylthiouracil compounds or their salts were dissolved in a small volume of DMSO and added to sterile water with a maximum of 0.5% v/v DMSO at final dilution. The S-Benzylthiouracil solution was subsequently pipetted into the growth pouch, followed by the addition of seeds of the crop being tested. The pouches were arranged in a randomized complete block design in growth racks and placed in 19-liter polycarbonate food storage containers (Rubbermaid Commercial Products, Winchester, Va.). The sealed containers were held in an upright growth cabinet maintained at 25 C with a 12 hour light: 12 hour dark photoperiod. For rice, plants were harvested at 6 d, while in mungbean and corn, the plants were harvested at 4 d post sowing. Measurements were performed on the primary root and shoot of each seedling. The growth of the primary root of rice was examined in the pouch assay system. The results of the testing, presented as percent change in root length across all S-Benzylthiouracil compounds, are shown below.

Another experiment has as its system mungbean. Put plainly: Mungbean pouch assay: growth of primary root and shoot. The settings on record: for change in vivo at 10 ppm: 96 h, read-out: Percent Change in Primary Root Length of Mungbean; for Shoot Length / Root Length: 4 days; for Shoot Length: control 4.9; for Root Length: control 6.1; for Effect on mungbean root (and shoot) growth, in words: mungbean pouch assay; for Percent Change in Primary Root Length: mungbean, linkage changes. The procedure: Seeds were placed in germination pouches consisting of germination paper as an insert in a gas-permeable 16×14 cm plastic pouch (CYG Pouch; Mega International, St. Paul, Minn.). In pouch solution evaluation, S-Benzylthiouracil compounds or their salts were dissolved in a small volume of DMSO and added to sterile water with a maximum of 0.5% v/v DMSO at final dilution. The S-Benzylthiouracil solution was subsequently pipetted into the growth pouch, followed by the addition of seeds of the crop being tested. The pouches were arranged in a randomized complete block design in growth racks and placed in 19-liter polycarbonate food storage containers (Rubbermaid Commercial Products, Winchester, Va.). The sealed containers were held in an upright growth cabinet maintained at 25 C with a 12 hour light: 12 hour dark photoperiod. For rice, plants were harvested at 6 d, while in mungbean and corn, the plants were harvested at 4 d post sowing. Measurements were performed on the primary root and shoot of each seedling. The growth of the primary root of mungbean was examined in the pouch assay system. The results of the testing, presented as percent change in root length across all the free S-Benzylthiouracil compounds is shown below. The following S-Benzylthiouracil compounds have benzyl substitutions as defined in Table 11 below.

The subject of the next experiment is tomato. The experiment in a line: Tomato petri plate assay. As to conditions: for change in vivo at 10 ppm: Solanum lycopersicum, 144 h, after 6 days of continuous exposure, read-out: Percent Increase (percent change in primary tomato root length); for Effect on tomato root growth, in words: continuous exposure; for Shoot Length / Root Length: 6 days after sowing; for Shoot Length: control 3.3; for Root Length: control 3.5. The procedure:
For tomato, the plants were grown in disposable (150 mm) sterile plastic petri plates (Falcon, BD Biosciences, Franklin Lakes, N.J.). In the tomato assay, a single sheet of Whatman #1 filter paper was placed at the bottom of the plate, 15 tomato seeds were added, and 10 mL of treatment solution was added. At the end of 6 d, the 10 largest seedlings were selected for measurement from each plate. In each study, a minimum of 3 replicate plates were used. In tomato, several S-Benzylthiouracil compounds were tested to determine the effects on root growth.

Setting [1] is: 10 ppm (10 mg/L), uracil moiety substitutions, vs control.
Where [2] appears, read: 10 ppm (10 mg/L), uracil moiety substitutions.
[3] abbreviates: 10 ppm (10 mg/L), benzyl ring substitutions, vs control.
Where [4] appears, read: 10 ppm (10 mg/L), benzyl ring substitutions.
Where [5] appears, read: 10 ppm equivalent, 6 days after sowing, control 2.96.
Where [6] appears, read: 10 ppm equivalent, 6 days after sowing, control 8.61.
The mark [7] stands for this setting: 10 mg/liter, 6 days after sowing, untreated control 10.50.
[8] abbreviates: 30 mg/liter, 6 days after sowing, untreated control 10.50.

Turning to `Oc1nccc(SCc2cccc(F)c2)n1` [Compound 11], the values for the change in vivo at 10 ppm in the experiment on rice (setting [1]), in the experiment with mungbean (setting [2]) and with tomato (10 ppm) were 10.6%, 8.9% and -34.8%, respectively. Also, the “Effect on tomato root growth, in words” value in the experiment with tomato is given as “root growth inhibition”.

For `Oc1nc(SCc2cccc(F)c2)nc2[nH]cnc12` [Compound 13], the values for the change in vivo at 10 ppm in the experiment with rice (setting [1]), in the experiment with mungbean (setting [2]) and in the experiment with tomato (10 ppm) were 8.7%, 4.5% and 0.8%, respectively. In addition, the “Effect on tomato root growth, in words” value with tomato is “root growth inhibition”.

For `[K+].[O-]c1ccnc(SCc2cccc(F)c2)n1` [Compound 1 K+ salt, Potassium Salt of S-(3-Fluorobenzyl)-2-thiouracil], the “Root Length” value with rice (10 mg/liter, 6 days after sowing, untreated control 9.67) is given as 11.03 cm; with rice (30 mg/liter, 6 days after sowing, untreated control 9.67) it was 9.71 cm.

On to `Cc1cc(O)nc(SCc2ccccc2)n1` [Compound 15], for which the “Percent Change in Primary Root Length in Rice” value with rice (setting [1]) was found to be 7.6%. In addition, the change in vivo at 10 ppm with rice (setting [1]) was 7.6%; in the experiment with mungbean (setting [2]), 36.2%. For the same molecule, the “Shoot Length” value in the experiment on mungbean (1 ppm) is given as 5.6 cm; in the experiment on mungbean (10 ppm), 5.0 cm. Also, the entries for the “Root Length” value in the experiment with mungbean (1 ppm) and with mungbean (10 ppm) were 6.9 cm and 8.5 cm, respectively. Further, the “Effect on mungbean root (and shoot) growth, in words” value with mungbean is “greatest increases in mungbean root growth; also recorded: both root and shoot showed significant increases in growth”. The “Effect on tomato root growth, in words” value in the experiment on tomato is “root growth inhibition”.

Take `Oc1ccnc(SCCc2ccccc2)n1` [Compound 22]: in the experiment with rice (10 ppm (10 mg/L), vs control), the “Percent Change in Primary Root Length of Rice” value (“Percent Change … of Rice” below) was determined as 5.3%. Moreover, the “Effect on rice root growth, in words” value in the experiment with rice is on record as “modest enhancements in root growth”. Besides, the “Percent Change in Primary Root Length” value in the experiment with mungbean (10 ppm (10 mg/L)) is 29.0%.

With `Fc1cccc(CSc2ncccn2)c1` [Compound 17], the figures for the change in vivo at 10 ppm with rice (setting [1]) and with mungbean (setting [2]) were 5.1% and 11.1%, respectively.

Consider `Cc1cc(O)nc(SCc2ccccc2Cl)n1` [Compound 20], for which the “Shoot Length” value is reported as 1.4 cm in the experiment with rice (1 ppm, 6 days after planting, control 1.7); 1.3 cm with rice (2 ppm, 6 days after planting, control 1.7); 1.2 cm with rice (5 ppm, 6 days after planting, control 1.7); 0.9 cm in the experiment with rice (10 ppm, 6 days after planting, control 1.7). For the same molecule, the “Root Length” value in the experiment on rice (1 ppm, 6 days after planting, control 5.4) is recorded as 5.3 cm; in the experiment on rice (2 ppm, 6 days after planting, control 5.4) it was 4.7 cm; with rice (5 ppm, 6 days after planting, control 5.4), 4.6 cm; with rice (10 ppm, 6 days after planting, control 5.4) it was 3.8 cm. Besides, the change in vivo at 10 ppm is -6.9% in the experiment with rice (setting [1]) and 8.2% in the experiment with mungbean (setting [2]). Moreover, the “Effect on rice root growth, in words” value in the experiment with rice is “significantly negative effect; also recorded: dose-dependent reductions in root and shoot growth”.

Take `COc1cccc(CSc2nccc(O)n2)c1` [Compound 7]: the results for the change in vivo at 10 ppm in the experiment on rice (setting [3]) and in the experiment on mungbean (setting [4]) were 2.5% and 17.5%, respectively.

With `CCOC(=O)c1cnc(SCc2cccc(F)c2)nc1O` [Compound 12, S-(3-Fluorobenzyl)-5-carboxyethyl-2-thiouracil], the values for the change in vivo at 10 ppm in the experiment on rice (setting [1]) and in the experiment on mungbean (setting [2]) were 9.5% and -20.1%, respectively. The “Effect on mungbean root (and shoot) growth, in words” value with mungbean is listed as “significant negative effect on root growth”.

As to `Nc1ccnc(SCc2cccc(F)c2)n1` [Compound 19], the change in vivo at 10 ppm with rice (setting [1]) was determined as 2.9%.

In the case of `Oc1ccnc(SCc2ccc(F)c(F)c2)n1` [Compound 5, S-(3,4-Difluorobenzyl)-2-thiouracil], the results for the change in vivo at 10 ppm with rice (setting [3]), with mungbean (setting [4]) and in the experiment with tomato (10 ppm) were 13.4%, 17.6% and 23.4%, respectively.

As for `Cc1cc(O)nc(SCc2c(Cl)cccc2Cl)n1` [Compound 16, S-(2,6-Dichlorobenzyl)-6-methyl-2-thiouracil], in the experiment on rice (setting [5]), the “Shoot Length” value is on record as 2.71 cm. In addition, the “Root Length” value in the experiment on rice (setting [6]) came to 9.31 cm. The values for the change in vivo at 10 ppm in the experiment on rice (setting [1]), with mungbean (setting [2]) and with tomato (10 ppm) were 5.5%, 6.6% and -7.2%, respectively.

As for `Oc1ccnc(SCc2ccc(F)cc2)n1` [Compound 3], the “Shoot Length” value with rice (setting [5]) was found to be 2.59 cm. Moreover, the “Root Length” value in the experiment on rice (setting [6]) was determined as 9.38 cm. Further, the change in vivo at 10 ppm with rice (setting [3]) amounted to 13.9%; in the experiment on mungbean (setting [4]) it was 10.4%; with tomato (10 ppm) it was 2.8%.

With `Cc1cccc(CSc2nccc(O)n2)c1` [Compound 9], the change in vivo at 10 ppm in the experiment with rice (setting [3]) is -2.3%; with mungbean (setting [4]), 5.9%.

For `[Na+].[O-]c1ccnc(SCc2ccccc2)n1` [Compound 2 Na+ salt, Sodium Salt of S-Benzyl-2-thiouracil], the “Root Length” value in the experiment on rice (setting [7]) worked out at 12.35 cm; in the experiment with rice (setting [8]), 13.03 cm.

Turning to `Oc1ccnc(SC/C=C/c2ccccc2)n1` [Compound 23], in the experiment on rice (10 ppm (10 mg/L), vs control), the “Percent Change … of Rice” value is listed as 2.3%. Also, the “Effect on rice root growth, in words” value in the experiment with rice was “modest enhancements in root growth”. Besides, the change in vivo at 10 ppm with tomato (10 ppm) is -15.7%.

With `COc1ccc(CSc2nccc(O)n2)cc1` [Compound 8], the change in vivo at 10 ppm in the experiment on rice (setting [3]) amounted to 0.4%.

For `Oc1ccnc(SCc2ccccc2)n1` [Compound 2, 2-[(phenylmethyl)thio]-4(3H)-pyrimidinone], the “Root Length” value in the experiment with rice (setting [7]) came out at 12.44 cm; with rice (setting [8]), 12.21 cm; in the experiment with rice (1 ppm, 6 days after treatment, control 5.7), 6.7 cm; in the experiment on rice (10 ppm, 6 days after treatment, control 5.7) it was 7.8 cm; with tomato (1 ppm), 3.8 cm; in the experiment with tomato (10 ppm), 3.8 cm. Also, in the experiment with rice (10 ppm, compounds and water-soluble salts, 6 days after sowing), the “Percent Change (rice primary root growth)” value is 15.6%. In addition, the change in vivo at 10 ppm came out at 15.6% with rice (setting [3]), 18.9% in the experiment on mungbean (setting [4]) and 23% with tomato (10 ppm). For the same molecule, the “Effect on rice root growth, in words” value in the experiment on rice was “increased the root length compared to the control treatment”. Also, the “Percent Change in Primary Root Length of Mungbean” value with mungbean (setting [4]) came out at 18.9%. For the same molecule, the entries for the “Shoot Length” value in the experiment on tomato (1 ppm) and with tomato (10 ppm) were 3.3 cm and 3.0 cm, respectively. Also, the results for the “Effect on tomato root growth, in words” value in the experiment with tomato and in the experiment on tomato (listed as S-Benzylthiouracil) were “one of the most active compounds in tomato; also recorded: root length was increased in a dose-dependent fashion” and “active at promoting root growth”, respectively.

As for `Oc1ccnc(SCc2ccccc2F)n1` [Compound 4], the change in vivo at 10 ppm was found to be 13.5% in the experiment on rice (setting [3]) and 17.7% in the experiment with mungbean (setting [4]).

With `Oc1ccnc(SCc2cc(F)cc(F)c2)n1` [Compound 6, S-(3,5-Difluorobenzyl)-2-thiouracil], the results for the change in vivo at 10 ppm in the experiment on rice (setting [3]) and in the experiment on mungbean (setting [4]) were 8.8% and 3%, respectively.

On to `Oc1ccnc(OCc2ccccc2)n1` [Compound 24, 2-O-Benzyluracil], for which the “Percent Change … of Rice” value with rice (10 ppm (10 mg/L), vs control) is 2.2%. In addition, the “Percent Change in Primary Root Length” value with mungbean (10 ppm (10 mg/L)) is listed as −1.3%.

Consider `O=c1cc[nH]c(=O)[nH]1` [Uracil], for which, in the experiment with tomato (10 ppm), the change in vivo at 10 ppm is -21%.

Turning to `Oc1ccnc(OCc2cccc(F)c2)n1` [Compound 21, 2-O-(3-fluorobenzyl)uracil], the “Percent Change … of Rice” value with rice (10 ppm (10 mg/L), vs control) worked out at 6.0%. Also, the “Percent Change in Primary Root Length” value in the experiment with mungbean (10 ppm (10 mg/L)) was 9.1%.

Take `Cc1cc(O)nc(SCc2ccccc2C)n1` [Compound 14]: the change in vivo at 10 ppm in the experiment on rice (setting [1]) worked out at 8.6%; in the experiment with mungbean (setting [2]), 15.4%.
